Assay: dermal toxicity of granular formulations (dermal LD50), male albino rabbits
Conditions: rabbit, in vivo, topical or ocular, Table I, 24 h cuff, 14 days observation, O,O-diethyl S-{[(1,1-dimethylethyl)thio]methyl}phosphorodithioate
From the text: General method for the evaluation of dermal toxicity of the formulations of the present invention using male albino rabbits as the test animals
a. Five male albino rabbits weighing approximately 2.2 to 3.5 kilogram are selected for each dosage level. The hair is shaved from the entire trunk.
b. Saran tubing or "Vinylite" film VU1900, 30.5 cm (12") wide, 0.04 millimeter in thickness and long enough to fit around the rabbit.
c. One felt cloth bandage measuring approximately 22.9×45.7 cm (9"×18").
d. Four pieces of 3.8 cm (1.5") adhesive tape approximately 35.6 cm (14") long.
a. The granular material is placed in the center of the plastic film and is moistened with water.
b. The rabbits underside is moistened with water and the animals are placed belly down on the material.
c. The plastic is then brought up and around the animal and secured at each end with strips of adhesive tape. The felt cloth is then placed under the belly and brought up around the animal and secured to the body with the remaining two strips of adhesive tape.
Twenty-four hours after dosing, the "cuff" is removed and any remaining material is brushed away. If the test material cannot be removed, the animal is fitted with a fiber collar which prevents the animal from licking the treatment area. The animals are observed for 14 days, post dosing, noting signs of toxicity, skin irritation and mortality. […]

CCOP(=S)(OCC)SCSC(C)(C)C [O,O-diethyl S-{[(1,1-dimethylethyl)thio]methyl}phosphorodithioate]
LD50 at 336 h: 1 to 2 mg/kg

Reference: patent US4343790A, “Controlled release acrylic polymer coated granular pesticidal compositions with attendant reduced dermal toxicity” (priority 1980, dated 1982)
